Test results: patent US7877241B2, “System and method for identifying behavioral signatures” (University of Maryland, Baltimore, priority 2005, dated 2011)
Where two headings read alike, the source gives them in different places.

Assays:
C57BL/6J mice = details: cited from earlier work
[1] = test system: behavioral effects of cocaine; details: in vivo; cited from earlier work
DBA/2J mice = details: cited from earlier work
C57BL/6J males = assay: SEE open-field test with pattern screening of mice injected with anxiolytic and anxiogenic drugs; assay type: in vivo, mouse; details: vs vehicle, diazepam 1 or 2 mg/kg, FG-7142 10 mg/kg, PTZ 20 mg/kg, i.p., training set only
Method: Behavioral data for the exemplary embodiments was gathered using the SEE open-field test described above. A mouse was introduced to a 2.5 meter circular pen and allowed to freely explore the pen for 30 minutes while the mouse's location was video-tracked and digitized at a rate of 25-30 Hz with a spatial resolution of approximately 1 cm. The tracked coordinates are stored on a storage device and imported into the SEE software. Using SEE software procedures the path is further smoothed and segmented into stops and progression segments. The data file of each animal thus included 45,000-54,000 data pints of its coordinates in the arena. Because small, local movements during stopping cannot be properly captured using available tracking technology, the analysis was limited to progression segments. Depending on the activity of the test subject, progression segments generally contain […] (100-1000 s) per animal. […]
FIG. 3 is a flow chart for a method of isolating candidate behavioral patterns according to an embodiment of the present invention. In step 302, the data points are quantified for a feature vector. In the embodiment of the present invention being described, each data point observed during the animal progression is quantified using seven “features” (variables) (t, d, v, a, j, h, c). […]
In step 306, the difference in relative frequencies are analyzed. […]

[2] = database having only C57BL/6J mice

## CNC(=O)c1cc2c(cn1)[nH]c1ccccc12 [FG 7142, b-Carboline-3-carboxylic acid N-methylamide]
C57BL/6J mice; [2]
  path curvature: increased

## CCCCN1[C@@H]2CC[C@H]1CC(OC(c1ccc(F)cc1)c1ccc(F)cc1)C2 (some centres unmarked) [JHW007]
[1]
  antagonizing the behavioral effects of cocaine: effective in antagonizing the behavioral effects of cocaine

## CC(N)Cc1ccccc1 (centres unmarked) [amphetamine]
DBA/2J mice; BDA/2J mice (so in the source), genotype comparison DBA/2J vs. C57BL/6J
  path curvature: no effect
DBA/2J mice; DBA/2J strain (both strains)
  increase in distance traveled: 3 fold
C57BL/6J mice; C57BL/6J strain (both strains)
  increase in distance traveled: 3 fold
C57BL/6J mice; C57BL/6 mice, genotype comparison DBA/2J vs. C57BL/6J
  path curvature: decreased

## O=C(NCCCCN1CCN(c2cccc(Cl)c2Cl)CC1)c1ccc2c(c1)Cc1ccccc1-2 [NGB2904]
[1]
  antagonizing the behavioral effects of cocaine: effective in antagonizing the behavioral effects of cocaine

## CN1C(=O)CN=C(c2ccccc2)c2cc(Cl)ccc21 [diazepam]
C57BL/6J males; FIG. 6A
  relative frequency of performing first pattern (3,*,*,4,1,*,3): significantly reduced
C57BL/6J males; FIG. 6B
  relative frequency of performing second pattern (3,1,4,*,3,5,*): dose-dependent effect
C57BL/6J mice; [2]
  path curvature: dose-dependently decreased

## C1CCc2nnnn2CC1 [pentylenetetrazole]
C57BL/6J mice; [2]
  path curvature: increased
